Results from patent US20160194336A1, “P38 MAPK INHIBITORS FOR THE TREATMENT OF INFLAMMATORY DISEASES” (ALLINKY BIOPHARMA, priority 2012, published 2016).
Like-named read-outs stand apart in the source and are kept apart here.

Tests used:
[1] = system: TNF-α secretion, THP-1 cells; test: Inhibition of TNF-α secretion by LPS-stimulated THP-1; assay type: cell-based; conditions: Homo sapiens, THP-1, 3 h, monocytes with LPS, read-out: TNF abetment
Experimental: Inhibition of TNF-α Secretion by a Human Monocytic Cell Line, THP-1.
THP-1 cells, growing in log phase, were collected by centrifugation and resuspended in RPMI 1640 (Sigma Aldrich), to a final cell concentration of 2×10^6 cells/ml. Cells were plated into 24-well plates (BD Biosciences). Dilutions of compounds in dimethyl sulfoxide (DMSO) were added to the culture to a final concentration M. The final DMSO concentration was 0.5%. The cells […] suspensions were preincubated with compounds for 1 h at 37° C. in a 5% C02 humidified atmosphere before the addition of LPS (Sigma Aldrich, L2654) to a final concentration of 2 μg/ml. After that, cells were incubated for 3 h followed by centrifugation to pellet cells. Cell supernatants were stored at 4° C. until Human analysis for TNF-α content. TNF-α levels were determined by ELISA (TNF Biotrak, GE Healthcare) following the manufacturer's directions. The percentage inhibition was calculated for each compound concentration tested, and the IC50 was calculated for each compound.

p38αR189A = target: T1, p38αR189A (Homo sapiens, UniProt Q16539, R189A); test: site-mutated p38 phosphorylation cascade assay, R189A mutant; assay type: biochemical; conditions: compound 10 uM
T1 construct: made in house; host or cells: E. coli XL10-Gold
Experimental: (§1) After preincubation, MKK6 (ProQinase), ATF2 (ProQinase) and ATP were added to a final concentration of 10 nM, 5 μM and 10 μM respectively, then incubated 40 minutes at 30° C. and analyzed with ADP-Glo™.
(§2) Replacement of specific residues arginine 186 and 189 of p38α (pGEX4T-1-p38α) for alanine was performed with the QuikChange Lightining Site-Directed Mutagenesis Kit (Agilent Technologies). The following oligonucleotides were used for the arginine 186 to alanine substitution: forward primer: 5′-SEQ ID NO 7-3′; reverse primer: 5′-SEQ ID NO 8-3′. Oligonucleotides used for the arginine 189 to alanine substitution were: forward primer: 5′-SEQ ID NO 9-3′; reverse primer: 5′-SEQ ID NO 10-3′. Mutations were validated by sequencing (Genomic Unit, Parque Cientifico de Madrid). E. coli XL10-Gold ultracompentent cells (Agilent Technologies) were transformed with the vector plasmids containing p38αWT and mutants. For the expression of recombinant p38α transformed cells were cultured overnight at 37° C. in 50 ml of fresh LB medium containing ampicillin (100 μg/ml). After that, culture was diluted in fresh LB to A595=0.4 and grown for approximately 1 h at 37° C. until exponential growth and then induced with Isopropyl-β-D-thiogalactopyranoside (IPTG) 1 mM for 5 h. The cells were collected by centrifugation and cell pellet were resuspended in 50 ml of cold lysis buffer: PBS pH 7.4, EDTA 10 mM, PMSF 1 mM, Benzamidine 0.2 mM, DTT 5 mM, Triton X-100 1% and Lysozyme 1 mg/ml. The soluble and insoluble fractions were separated by centrifugation (16,000 g for 20 min). The soluble fraction was incubated for 2 hours with 1 ml of pre-equilibrated Glutathione Sepharose 4B (GE Healthcare) and the resin was extensively washed in a column with 200 ml of binding buffer: PBS, PMSF 1 mM and benzamidine 0.2 mM. Proteins were eluted with 1 ml of Tris-HCl 50 mM pH 8.0 and reduced glutathione 20 mM. 20% glycerol was added to purified proteins and stored at −80° C. Protein concentration and purity was assessed by SDS-PAGE. Kinase activity was measured by ADP-glo kit using MKK6 as activator and ATF2 as substrate. Activity recorded for p38αR186A and p38αR189A were 15.5% and 4.8%, respectively (n=4) related to wild type protein.

THP-1 cells = test: survival of monocytes with LPS; assay type: cell-based, human
p38alpha [2] = target: T2, p38alpha (Homo sapiens, UniProt Q16539); test: p38 cascade kinase reaction (inactive p38alpha, MKK6, ATF2, ADP-Glo); assay type: biochemical; conditions: ATP 100 μM; compound 10 μM; n=4; read-out: inhibition, ATP-site competitive assay, cascade p38alpha/ATF-2
T2 construct: purchased Invitrogen PV3305

p38alpha wt = target: T3, p38alpha wt (Homo sapiens, UniProt Q16539); test: site-mutated p38 phosphorylation cascade assay, wild type; assay type: biochemical; conditions: compound 10 uM
T3 construct: made in house; host or cells: E. coli XL10-Gold
Experimental: as §1, §2

p38alpha [3] = target: T2, p38alpha; test: p38 cascade kinase reaction (inactive p38alpha, MKK6, ATF2, ADP-Glo); assay type: biochemical; conditions: for inhibition at 10 µM: compound 10 μM
Experimental: Purified recombinant activated p38alpha (10 nM)(ProQinase) was preincubated 10 minutes at 30° C. with the compound of interest at concentrations between 1 and 100 µM in duplicate in a final volume of 30 ul of kinase buffer (Hepes 60 mM pH 7.5, MgCl2 3 mM, MnCl2 3 mM, Sodium Orthovanadate 3 μM, DTT 1.2 mM). After preincubation, peptide substrate (SignalChem #P03-58) and ATP were added to a final concentration of 10 μM and 100 μM respectively, and then incubated 40 minutes at 30° C. for the kinase reaction. Phosphorylation was analyzed with ADP-GloM (Promega #V9101) and emitted luminescence was measured with BMG Fluostar microplate reader.
as §1

p38beta = p38beta (Homo sapiens, UniProt Q15759); test: p38 cascade kinase reaction, p38beta/ATF-2; assay type: biochemical
Experimental: as §1

p38αR186A = target: T4, p38αR186A (Homo sapiens, UniProt Q16539, R186A); test: site-mutated p38 phosphorylation cascade assay, R186A mutant; assay type: biochemical; conditions: compound 10 uM
T4 construct: made in house; host or cells: E. coli XL10-Gold
Experimental: as §1, §2

[4] = system: Fibroblast-like synoviocytes (FLS) from patients with rheumatoid arthritis; test: inflammatory mediators (IL6, IL8, MCP-1) by ELISA in FLS stimulated with TNF-alpha; assay type: cell-based, human; conditions: compound 100 μM
Experimental: Fibroblast-like synoviocytes (FLS) from patients with rheumatoid arthritis (RA) were obtained at the time of synovectomy or joint replacement. All RA patients fulfilled the American College of Rheumatology […] criteria for the diagnosis of RA (Arnett FC y cols. 1988 Arthritis Rheum 31(3):315-24).
Synovial tissue was minced and incubated with 10 μg/ml collagenase in serum-free Dulbecco modified Eagle medium (DMEM; Gibco Invitrogen, Barcelona, Spain) for 3 h at 37° C. After digestion, FLS were filtered through a nylon cell strainer (BD Falcon, Franklin Lakes, USA), washed extensively, and cultured in DMEM supplemented with 10% v/v fetal calf serum, 1% penicillin-streptomycin, and 1% L-glutamine (all reagents from PAA, Laboratories GmbH) in a humidified 5% C02 atmosphere. Adherent cells at 80-90% confluence were trypsinised and diluted at a split ratio of 1:3. FLS from 4 patients and between passages 3 to 8 were used for all experiments.
Enzyme-Linked Immunosorbent Assay (ELISA): RA FLS (1×10^4 cells/well) were cultured in DMEM 1% FCS in 96 well plates and treated with p-p38 inhibitors for 1 h. After, they were stimulated with TNF-α (10 ng/ml, Sigma Aldrich) and both treatments were present in the culture throughout the experiment. The supernatants were harvested at 18 h after treatment and assayed for IL6, IL8/CXCL8 and monocyte chemoattractant protein (MCP)-1/CCL2 by ELISA according to the manufacturer's instructions (BD Bioscience, San Jose, Calif., USA).

T2 sequence (Q16539 whole entry): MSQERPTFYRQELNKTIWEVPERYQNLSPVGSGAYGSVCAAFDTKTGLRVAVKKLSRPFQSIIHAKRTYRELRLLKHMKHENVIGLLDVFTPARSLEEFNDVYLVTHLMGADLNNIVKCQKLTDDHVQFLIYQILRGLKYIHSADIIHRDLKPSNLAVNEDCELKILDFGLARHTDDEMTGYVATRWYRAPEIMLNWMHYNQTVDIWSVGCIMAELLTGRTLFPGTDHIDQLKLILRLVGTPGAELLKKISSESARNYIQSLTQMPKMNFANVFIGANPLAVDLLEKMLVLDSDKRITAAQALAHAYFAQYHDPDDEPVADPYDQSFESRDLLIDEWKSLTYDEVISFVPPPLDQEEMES
Sequence of p38beta (Q15759 whole entry): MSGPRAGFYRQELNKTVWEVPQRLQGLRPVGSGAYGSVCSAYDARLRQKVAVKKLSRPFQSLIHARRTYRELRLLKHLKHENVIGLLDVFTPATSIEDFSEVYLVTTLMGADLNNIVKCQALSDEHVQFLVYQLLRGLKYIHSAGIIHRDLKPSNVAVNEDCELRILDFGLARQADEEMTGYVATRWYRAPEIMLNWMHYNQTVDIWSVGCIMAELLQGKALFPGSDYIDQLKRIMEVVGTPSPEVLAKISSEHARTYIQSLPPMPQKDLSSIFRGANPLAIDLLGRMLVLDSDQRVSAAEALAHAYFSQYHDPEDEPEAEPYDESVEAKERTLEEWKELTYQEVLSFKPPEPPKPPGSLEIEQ
T3 sequence (Q16539 whole entry): as the sequence (Q16539 whole entry) above
T1 sequence (Q16539 whole entry R189A): as the sequence (Q16539 whole entry) above, with R189A counted along it
T4 sequence (Q16539 whole entry R186A): as the sequence (Q16539 whole entry) above, with R186A counted along it

CCOC(=O)c1ccc(Nc2nc3nonc3nc2N2CCC(Cc3ccccc3)CC2)cc1 [Compound 1]
inhibition at 1 µM ([1]; 1 uM): 9%
inhibition at 10 µM ([1]; 10 uM): 40%
inhibition at 10 µM (p38αR189A): 25%
Cell survival (THP-1 cells; 1 uM): 96%
Cell survival (THP-1 cells; 10 uM): 93%
inhibition at 10 µM (p38alpha [2]): 92%
inhibition at 10 µM (p38alpha wt): 64%
inhibition at 10 µM (p38alpha [3]; ATP 10 μM, n=4, read-out: inhibition, ATP-site competitive assay, cascade p38alpha/ATF-2): 94%
inhibition upon ATP increase (ATP-site competition) (p38alpha [3]; cascade p38alpha/ATF-2, n=4): Maintains Inhibition to the Same Level Upon ATP Increase
inhibition at 10 µM (p38alpha [3]; dose response table, read-out: inhibition p38alpha/ATF-2): 88%
inhibition at 100 µM (p38alpha [3]; compound 100 μM, dose response table, read-out: inhibition p38alpha/ATF-2): 101%
inhibition at 10 µM (p38beta; compound 10 μM): 58%
inhibition at 100 µM (p38beta; compound 100 μM): 100%
inhibition at 10 µM (p38αR186A): 20%
IL-6, % of TNF-α control ([4]; FLS sample R 2): 13.8%
IL-8, % of TNF-α control ([4]; FLS sample R 2): 27.3%
MCP-1, % of TNF-α control ([4]; FLS sample R 2): 2.1%
IL-6, % of TNF-α control ([4]; FLS sample R 6): 8.1%
IL-8, % of TNF-α control ([4]; FLS sample R 6): 4.8%
MCP-1, % of TNF-α control ([4]; FLS sample R 6): 0.0%
IL-6, % of TNF-α control ([4]; FLS sample R 8): 23.5%
IL-8, % of TNF-α control ([4]; FLS sample R 8): 67.4%
MCP-1, % of TNF-α control ([4]; FLS sample R 8): 22.5%
IL-6, % of TNF-α control ([4]; FLS sample SH203): 101.4%
IL-8, % of TNF-α control ([4]; FLS sample SH203): 43.8%
MCP-1, % of TNF-α control ([4]; FLS sample SH203): 8.8%
IL-6, % of TNF-α control, Media ([4]; mean of 4 FLS samples): 36.7%
IL-8, % of TNF-α control, Media ([4]; mean of 4 FLS samples): 35.8%
MCP-1, % of TNF-α control, Media ([4]; mean of 4 FLS samples): 8.4%
